Measured values: ChEMBL document CHEMBL1681705, “Optimisation of ITK inhibitors through successive iterative design cycles” (Bioorg Med Chem Lett, 2011)

Legend:
[1] = target: Mast/stem cell growth factor receptor Kit (Homo sapiens) (UniProt P10721); assay: Inhibition of c-Kit at 0.1 uM; values are per cent of control
[2] = target: Tyrosine-protein kinase ABL1 (Homo sapiens) (UniProt P00519); assay: Inhibition of Abl at 0.1 uM; values are per cent of control
[3] = Inhibition of PKA at 1 uM; values are per cent of control
[4] = target: Tyrosine-protein kinase Fes/Fps (Homo sapiens) (UniProt P07332); assay: Inhibition of Fes at 1 uM; values are per cent of control
[5] = target: RAF proto-oncogene serine/threonine-protein kinase (Homo sapiens) (UniProt P04049); assay: Inhibition of c-RAF at 1 uM; values are per cent of control
[6] = target: T1, Ephrin type-B receptor 4 (Homo sapiens) (UniProt P54760); assay: Inhibition of EphB4 at 1 uM; values are per cent of control
T1 sequence (whole entry): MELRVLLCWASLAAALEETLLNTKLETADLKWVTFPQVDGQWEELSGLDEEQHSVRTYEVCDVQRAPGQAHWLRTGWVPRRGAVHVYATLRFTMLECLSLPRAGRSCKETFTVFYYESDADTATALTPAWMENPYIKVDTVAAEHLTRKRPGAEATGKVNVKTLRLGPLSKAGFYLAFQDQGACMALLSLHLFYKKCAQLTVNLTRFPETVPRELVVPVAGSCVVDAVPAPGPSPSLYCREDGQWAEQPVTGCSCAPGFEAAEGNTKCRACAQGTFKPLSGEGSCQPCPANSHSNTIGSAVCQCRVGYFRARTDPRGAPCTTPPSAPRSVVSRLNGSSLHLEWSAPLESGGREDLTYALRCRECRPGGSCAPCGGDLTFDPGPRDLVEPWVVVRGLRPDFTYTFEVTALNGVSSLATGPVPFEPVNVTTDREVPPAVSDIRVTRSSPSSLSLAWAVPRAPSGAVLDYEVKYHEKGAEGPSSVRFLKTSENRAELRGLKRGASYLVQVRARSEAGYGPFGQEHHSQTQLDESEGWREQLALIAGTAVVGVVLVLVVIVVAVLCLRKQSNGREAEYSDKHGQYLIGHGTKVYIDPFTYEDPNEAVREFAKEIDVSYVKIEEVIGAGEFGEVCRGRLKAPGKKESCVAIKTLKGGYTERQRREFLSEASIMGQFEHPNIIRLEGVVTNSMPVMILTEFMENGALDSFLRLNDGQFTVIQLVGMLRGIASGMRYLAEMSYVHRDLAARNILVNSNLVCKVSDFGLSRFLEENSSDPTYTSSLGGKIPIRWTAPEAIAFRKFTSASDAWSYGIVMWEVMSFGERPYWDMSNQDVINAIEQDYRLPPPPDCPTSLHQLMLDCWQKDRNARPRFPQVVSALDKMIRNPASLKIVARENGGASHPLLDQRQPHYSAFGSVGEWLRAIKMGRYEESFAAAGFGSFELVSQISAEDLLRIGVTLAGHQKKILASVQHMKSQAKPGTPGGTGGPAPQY

[7] = target: Serine/threonine-protein kinase PLK2 (Homo sapiens) (UniProt Q9NYY3); assay: Inhibition of Snk at 1 uM
[8] = target: T2, Protein kinase C iota type (Homo sapiens) (UniProt P41743); assay: Inhibition of PKCiota at 1 uM; values are per cent of control
T2 sequence (whole entry): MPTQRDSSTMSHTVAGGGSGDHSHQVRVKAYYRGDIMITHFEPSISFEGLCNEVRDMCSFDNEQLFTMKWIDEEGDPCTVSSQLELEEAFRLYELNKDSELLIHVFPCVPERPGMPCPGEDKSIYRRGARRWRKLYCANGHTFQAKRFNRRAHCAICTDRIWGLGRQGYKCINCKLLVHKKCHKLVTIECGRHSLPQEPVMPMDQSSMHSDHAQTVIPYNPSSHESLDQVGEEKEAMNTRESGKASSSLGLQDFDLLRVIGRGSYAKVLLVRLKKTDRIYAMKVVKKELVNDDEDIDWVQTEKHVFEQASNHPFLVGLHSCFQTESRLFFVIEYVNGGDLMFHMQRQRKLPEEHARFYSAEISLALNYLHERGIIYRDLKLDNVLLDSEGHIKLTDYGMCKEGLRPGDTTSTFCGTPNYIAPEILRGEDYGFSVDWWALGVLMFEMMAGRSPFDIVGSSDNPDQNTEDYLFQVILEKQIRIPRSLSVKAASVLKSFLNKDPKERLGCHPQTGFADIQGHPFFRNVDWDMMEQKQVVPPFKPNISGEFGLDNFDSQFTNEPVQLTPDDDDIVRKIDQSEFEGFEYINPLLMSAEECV

Chain of Tyrosine-protein kinase ABL1 (Homo sapiens) (P00519 whole entry): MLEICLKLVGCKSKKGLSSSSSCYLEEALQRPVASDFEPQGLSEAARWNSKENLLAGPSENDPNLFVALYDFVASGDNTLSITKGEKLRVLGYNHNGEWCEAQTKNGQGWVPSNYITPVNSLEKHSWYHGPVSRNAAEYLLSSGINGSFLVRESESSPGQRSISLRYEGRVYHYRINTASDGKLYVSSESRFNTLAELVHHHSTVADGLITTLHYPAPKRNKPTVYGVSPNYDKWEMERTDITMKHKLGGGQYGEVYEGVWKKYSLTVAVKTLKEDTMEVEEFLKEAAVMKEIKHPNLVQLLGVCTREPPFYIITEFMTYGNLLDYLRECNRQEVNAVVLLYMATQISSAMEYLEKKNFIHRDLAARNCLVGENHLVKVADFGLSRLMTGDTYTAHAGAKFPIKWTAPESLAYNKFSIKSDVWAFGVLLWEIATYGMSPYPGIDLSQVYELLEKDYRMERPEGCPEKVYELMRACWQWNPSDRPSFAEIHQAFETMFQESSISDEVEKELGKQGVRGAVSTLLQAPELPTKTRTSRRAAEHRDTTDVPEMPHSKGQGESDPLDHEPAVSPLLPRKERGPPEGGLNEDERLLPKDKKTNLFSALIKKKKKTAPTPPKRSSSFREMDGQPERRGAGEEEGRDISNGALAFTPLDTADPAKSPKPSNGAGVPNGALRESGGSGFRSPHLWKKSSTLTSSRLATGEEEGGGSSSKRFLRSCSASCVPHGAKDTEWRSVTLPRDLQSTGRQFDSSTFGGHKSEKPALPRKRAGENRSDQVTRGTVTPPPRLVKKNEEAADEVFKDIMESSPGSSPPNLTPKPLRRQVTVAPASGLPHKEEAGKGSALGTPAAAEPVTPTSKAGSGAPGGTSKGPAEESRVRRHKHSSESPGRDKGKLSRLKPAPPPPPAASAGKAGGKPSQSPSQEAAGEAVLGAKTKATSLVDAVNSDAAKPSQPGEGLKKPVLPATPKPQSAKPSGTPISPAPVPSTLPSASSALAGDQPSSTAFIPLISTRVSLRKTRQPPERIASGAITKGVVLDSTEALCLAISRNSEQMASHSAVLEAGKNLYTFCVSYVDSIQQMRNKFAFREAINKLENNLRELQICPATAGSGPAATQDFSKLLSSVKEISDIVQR
Chain of Mast/stem cell growth factor receptor Kit (Homo sapiens) (P10721 whole entry): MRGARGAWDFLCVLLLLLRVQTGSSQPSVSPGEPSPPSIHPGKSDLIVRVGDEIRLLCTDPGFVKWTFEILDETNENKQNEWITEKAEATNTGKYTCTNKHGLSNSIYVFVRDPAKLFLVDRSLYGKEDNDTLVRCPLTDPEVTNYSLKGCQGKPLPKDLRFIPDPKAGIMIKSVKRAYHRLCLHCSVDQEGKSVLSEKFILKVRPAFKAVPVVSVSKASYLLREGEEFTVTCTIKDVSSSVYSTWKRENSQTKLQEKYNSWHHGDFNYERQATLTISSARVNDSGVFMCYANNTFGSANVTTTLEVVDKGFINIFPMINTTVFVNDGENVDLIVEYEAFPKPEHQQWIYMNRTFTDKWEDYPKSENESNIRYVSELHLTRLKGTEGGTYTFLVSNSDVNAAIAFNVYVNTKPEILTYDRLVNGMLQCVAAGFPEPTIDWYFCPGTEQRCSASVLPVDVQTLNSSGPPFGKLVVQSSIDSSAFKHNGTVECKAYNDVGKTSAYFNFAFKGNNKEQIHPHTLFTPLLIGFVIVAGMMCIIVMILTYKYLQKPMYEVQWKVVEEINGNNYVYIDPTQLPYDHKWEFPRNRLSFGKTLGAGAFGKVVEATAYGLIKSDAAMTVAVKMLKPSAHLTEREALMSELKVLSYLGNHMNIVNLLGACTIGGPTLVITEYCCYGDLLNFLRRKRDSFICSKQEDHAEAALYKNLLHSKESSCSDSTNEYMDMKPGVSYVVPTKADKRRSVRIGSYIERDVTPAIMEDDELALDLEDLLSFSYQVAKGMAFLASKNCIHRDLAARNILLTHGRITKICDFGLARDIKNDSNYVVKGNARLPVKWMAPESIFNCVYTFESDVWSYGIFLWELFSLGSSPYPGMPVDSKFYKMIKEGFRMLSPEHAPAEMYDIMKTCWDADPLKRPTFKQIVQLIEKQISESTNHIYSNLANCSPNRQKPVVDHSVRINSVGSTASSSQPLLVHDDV
Chain of Tyrosine-protein kinase Fes/Fps (Homo sapiens) (P07332 whole entry): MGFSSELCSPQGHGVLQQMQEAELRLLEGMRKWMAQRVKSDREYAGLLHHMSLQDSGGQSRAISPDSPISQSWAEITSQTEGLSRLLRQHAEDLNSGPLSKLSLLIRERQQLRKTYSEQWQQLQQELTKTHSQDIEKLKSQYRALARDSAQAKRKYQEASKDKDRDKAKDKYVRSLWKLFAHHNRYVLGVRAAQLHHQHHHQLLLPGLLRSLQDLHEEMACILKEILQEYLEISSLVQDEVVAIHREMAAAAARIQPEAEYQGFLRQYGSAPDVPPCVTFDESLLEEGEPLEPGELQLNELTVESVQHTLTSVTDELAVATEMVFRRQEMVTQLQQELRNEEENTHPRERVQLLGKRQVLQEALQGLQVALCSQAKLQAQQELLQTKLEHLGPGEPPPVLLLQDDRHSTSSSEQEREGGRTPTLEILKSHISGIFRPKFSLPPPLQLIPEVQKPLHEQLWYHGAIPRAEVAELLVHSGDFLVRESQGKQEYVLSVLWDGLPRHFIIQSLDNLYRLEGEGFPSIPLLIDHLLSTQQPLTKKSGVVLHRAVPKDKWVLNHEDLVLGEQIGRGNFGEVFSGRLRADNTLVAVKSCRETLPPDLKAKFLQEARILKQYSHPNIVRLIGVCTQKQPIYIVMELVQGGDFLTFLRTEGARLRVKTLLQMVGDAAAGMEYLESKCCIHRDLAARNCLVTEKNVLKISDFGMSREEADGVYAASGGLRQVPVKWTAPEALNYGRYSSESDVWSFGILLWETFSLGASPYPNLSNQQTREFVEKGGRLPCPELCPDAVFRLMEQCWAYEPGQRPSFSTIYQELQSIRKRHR
Chain of RAF proto-oncogene serine/threonine-protein kinase (Homo sapiens) (P04049 whole entry): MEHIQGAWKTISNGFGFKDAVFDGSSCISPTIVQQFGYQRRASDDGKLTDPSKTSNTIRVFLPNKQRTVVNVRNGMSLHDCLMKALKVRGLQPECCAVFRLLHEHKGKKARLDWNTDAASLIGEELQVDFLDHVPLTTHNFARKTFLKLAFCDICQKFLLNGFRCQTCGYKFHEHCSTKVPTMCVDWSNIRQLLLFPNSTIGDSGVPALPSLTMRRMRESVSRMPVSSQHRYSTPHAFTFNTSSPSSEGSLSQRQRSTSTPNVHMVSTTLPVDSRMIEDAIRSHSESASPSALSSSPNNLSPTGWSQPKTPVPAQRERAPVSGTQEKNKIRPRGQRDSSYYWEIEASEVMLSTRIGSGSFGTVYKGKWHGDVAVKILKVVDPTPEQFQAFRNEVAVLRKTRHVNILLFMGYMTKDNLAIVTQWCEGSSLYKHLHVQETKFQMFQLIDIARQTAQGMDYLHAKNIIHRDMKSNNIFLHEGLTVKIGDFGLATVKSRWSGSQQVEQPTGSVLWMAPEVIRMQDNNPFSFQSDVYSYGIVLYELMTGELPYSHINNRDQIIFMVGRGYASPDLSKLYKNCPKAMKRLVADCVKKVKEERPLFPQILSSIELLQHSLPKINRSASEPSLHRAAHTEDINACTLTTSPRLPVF
Chain of Serine/threonine-protein kinase PLK2 (Homo sapiens) (Q9NYY3 whole entry, looked up): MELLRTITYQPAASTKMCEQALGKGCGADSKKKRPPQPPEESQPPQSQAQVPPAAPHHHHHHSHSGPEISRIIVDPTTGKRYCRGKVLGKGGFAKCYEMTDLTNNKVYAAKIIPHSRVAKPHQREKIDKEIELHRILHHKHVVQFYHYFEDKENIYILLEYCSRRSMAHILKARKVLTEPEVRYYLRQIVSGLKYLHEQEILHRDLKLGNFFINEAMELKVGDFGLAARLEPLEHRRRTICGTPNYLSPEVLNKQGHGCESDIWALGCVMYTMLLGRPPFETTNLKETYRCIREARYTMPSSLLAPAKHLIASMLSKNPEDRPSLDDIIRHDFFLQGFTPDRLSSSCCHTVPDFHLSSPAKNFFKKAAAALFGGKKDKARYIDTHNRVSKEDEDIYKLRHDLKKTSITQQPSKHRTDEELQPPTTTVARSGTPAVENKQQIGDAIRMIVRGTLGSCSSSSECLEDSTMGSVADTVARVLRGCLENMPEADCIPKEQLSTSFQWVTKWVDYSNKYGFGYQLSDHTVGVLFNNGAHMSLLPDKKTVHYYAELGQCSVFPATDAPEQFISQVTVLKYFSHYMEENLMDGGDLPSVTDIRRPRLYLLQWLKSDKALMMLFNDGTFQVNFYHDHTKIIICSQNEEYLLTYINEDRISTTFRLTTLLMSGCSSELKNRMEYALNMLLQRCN

| Structure (SMILES) | residual activity [1] [%] | residual activity [2] [%] | residual activity [3] [%] | residual activity [4] [%] | residual activity [5] [%] | residual activity [6] [%] | inhibition [7] [%] | residual activity [8] [%] |
| --- | --- | --- | --- | --- | --- | --- | --- | --- |
| Cc1ccc2cc(-c3n[nH]c4ccc(NC5CCNC5)cc34)[nH]c2c1 (stereo unspecified) | 92 | 3 | 6 | 0 | 90 | 62 | 76 | 76 |
| Cc1ccc2cc(-c3n[nH]c4ccc(NC5CCN(Cc6ccccc6)CC5)cc34)[nH]c2c1 | 143 | 18 | 5 | 1 | 90 | 92 | 87 | 90 |
